From patent US20230159527A1, “COMPOUNDS AS BCL-2 INHIBITORS” (Fochon Pharmaceuticals, Ltd., priority 2020, published 2023) come the findings set out here.

The structures appear in SMILES notation. Bounds are passed on as bounds.

In general, IC50 refers to the concentration at which inhibition is half-maximal.

What all share (type): cell-based
For test [1], the system named is Toledo cells. Briefly: Cell proliferation assay, Toledo cells (MTS, 72 h). The note with it: Homo sapiens, Toledo cells, MTS, read-out: Toledo IC50. In outline: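 IC50 was derived from 490 nm absorbance after a 2 h MTS step. Before that, compounds at 1.5–10000 nM final (nine points) acted on Toledo cells for 72 h at 37 °C, 5% CO2. Cells were seeded at 30000/well in 10% FBS RPMI-1640 and rested 4 h before dosing.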

Test [2] concerns RS4;11 cells. Description: Cell proliferation assay, RS4;11 cells (MTS, 72 h). Conditions: Homo sapiens, RS4;11 cell proliferation. In outline: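 RS4;11 cells (30000/well, RPMI-1640 plus 10% FBS) treated with compounds at 1.5-10000 nM for 72 h at 37° C, 5% CO2. Viability by MTS (2 h), absorbance at 490 nm with 650 nm reference; IC50 from proliferation inhibition.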
Test [3] has as its system DoHH2 cells. Briefly: Cell proliferation assay, DoHH2 cells (MTS, 120 h). The note with it: Homo sapiens, DOHH-2. In outline: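 DoHH2 cells in RPMI-1640 with 10% FBS were plated at 5000/well and rested 4 h. They were then exposed to compound at nine final concentrations (10000 to 1.5 nM) for 120 h at 37 °C. Viability was read by MTS (2 h, A490) and IC50 derived by curve fitting.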

`Cc1nc(NC[C@H]2CC[C@](C)(O)CC2)c([N+](=O)[O-])cc1S(=O)(=O)NC(=O)c1ccc(N2CCC3(CC2)CC(N2CCC[C@H]2c2ccccc2C(C)C)C3)cc1Oc1cnc2[nH]ccc2c1` (single isomer, unassigned) [Example A-121, 2-((1H-pyrrolo[2,3-b]pyridin-5-yl)oxy)-N-((6-((((1r,4r)-4-hydroxy-4-methylcyclohexyl)methyl)amino)-2-methyl-5-nitropyridin-3-yl)sulfonyl)-4-(2-((R or S)-2-(2-isopropylphenyl)pyrrolidin-1-yl)-7-azaspiro[3.5]nonan-7-yl) benzamide]: the half-inhibitory concentration (IC50) is 1 nM in test [1], at most 1 nM in test [2] and at most 1 nM in test [3].

For `O=C(NS(=O)(=O)c1cnc(NCC2C3COCC23)c([N+](=O)[O-])c1)c1ccc(N2CCC3(CC2)CC(N2CCC[C@@H]2c2ccccc2C2CC2)C3)cc1Oc1cnc2[nH]ccc2c1` (stereo partly drawn) [Example A-30b, 2-((1H-pyrrolo[2,3-b]pyridin-5-yl)oxy)-N-((6-(((3-oxabicyclo[3.1.0]hexan-6-yl)methyl)amino)-5-nitro-pyridin-3-yl)sulfonyl)-4-(2-((R)-2-(2-cyclopropylphenyl)pyrrolidine-1-yl)-7-azaspiro[3.5]nonan-7-yl)benzamide], the results for the half-inhibitory concentration (IC50) in test [1], in test [2] and in test [3] were 1 nM, at most 1 nM and at most 1 nM, respectively.

For `CC(C)c1ccccc1[C@H]1CCCN1C1CC2(CCN(c3ccc(C(=O)NS(=O)(=O)c4cnc(NCC5C6COCC56)c([N+](=O)[O-])c4)c(Oc4cnc5[nH]ccc5c4)c3)CC2)C1` (stereo partly drawn) [Example A-27b, 2-((1H-pyrrolo[2,3-b]pyridin-5-yl)oxy)-N-((6-(((3-oxabicyclo[3.1.0]hexan-6-yl)methyl)amino)-5-nitro-pyridin-3-yl)sulfonyl)-4-(2-((R)-2-(2-isopropylphenyl)pyrrolidin-1-yl)-7-azaspiro[3.5]nonan-7-yl) benzamide], the IC50 in test [1] was 1 nM; in test [2], at most 1 nM; in test [3], at most 1 nM.

For `CN1CCN(C2CC3(CCN(c4ccc(C(=O)NS(=O)(=O)c5cnc(NC[C@H]6CC[C@](C)(O)CC6)c([N+](=O)[O-])c5)c(Oc5cnc6[nH]ccc6c5)c4)CC3)C2)[C@H](c2ccccc2C2CC2)C1` (single isomer, unassigned) [Example A-40, 2-((1H-pyrrolo[2,3-b]pyridin-5-yl)oxy)-4-(2-((R or S)-2-(2-cyclopropylphenyl)-4-methylpiperazin-1-yl)-7-azaspiro[3.5]nonan-7-yl)-N-((6-((((1r,4r)-4-hydroxy-4-methylcyclohexyl)methyl)amino)-5-nitropyridin-3-yl)sulfonyl)benzamide], the IC50 in test [1] is 1 nM; in test [2], at most 1 nM; in test [3] it was at most 1 nM.

With `CC(C)c1ccccc1[C@@H]1COCCN1C1CC2(CCN(c3ccc(C(=O)NS(=O)(=O)c4cc5c(c([N+](=O)[O-])c4)O[C@H](CN4CCOCC4)CO5)c(Oc4cnc5[nH]ccc5c4)c3)CC2)C1` (single isomer, unassigned) [Example E-40, 2-((1H-pyrrolo [2,3-b]pyridin-5-yl)oxy)-4-(2-((R or S)-3-(2-isopropylphenyl)morpholino)-7-azaspiro[3.5]nonan-7-yl)-N-(((R)-2-(morpholinomethyl)-8-nitro-2,3-dihydrobenzo [b][1,4]dioxin-6-yl)sulfonyl) benzamide], the IC50 was 1 nM in test [1], at most 1 nM in test [2] and at most 1 nM in test [3].

As for `CC(C)c1ccccc1C1COCCN1C1CC2(CCN(c3ccc(C(=O)NS(=O)(=O)c4cnc(NCC5(C#N)CCOCC5)c([N+](=O)[O-])c4)c(Oc4cnc5[nH]ccc5c4)c3)CC2)C1` (single isomer, unassigned) [Example A-142, (R or S)-2-((1H-pyrrolo[2,3-b]pyridin-5-yl)oxy)-N-((6-(((4-cyanotetrahydro-2H-pyran-4-yl)methyl)amino)-5-nitro-pyridin-3-yl)sulfonyl)-4-(2-(3-(2-iso-propylphenyl)morpholino)-7-azaspiro [3.5]nonan-7-yl)benzamide], the IC50 was 9 nM in test [1], at most 1 nM in test [2] and at most 1 nM in test [3].

Turning to `CC(C)c1ccccc1C1COCCN1C1CC2(CCN(c3ccc(C(=O)NS(=O)(=O)c4cnc(NCC5CCOCC5)c([N+](=O)[O-])c4)c(Oc4cnc5[nH]ccc5c4)c3)CC2)C1` (single isomer, unassigned) [Example A-55a, (R or S)-2-((1H-pyrrolo[2,3-b]pyridin-5-yl)oxy)-4-(2-(3-(2-isopropyl-phenyl)morpholino)-7-azaspiro[3.5]nonan-7-yl)-N-((5-nitro-6-(((tetra-hydro-2H-pyran-4-yl)methyl)amino)pyridin-3-yl)sulfonyl)benzamide], the figures for the IC50 in test [1], in test [2] and in test [3] were 5 nM, at most 1 nM and at most 1 nM, respectively.

As for `CC(C)c1ccccc1[C@@H]1CCCN1C1CC2(CCN(c3ccc(C(=O)NS(=O)(=O)c4cc5c(c([N+](=O)[O-])c4)O[C@H](CN4CCOCC4)CO5)c(Oc4cnc5[nH]ccc5c4)c3)CC2)C1` (single isomer, unassigned) [Example E-39, 2-((1H-pyrrolo [2,3-b]pyridin-5-yl)oxy)-4-(2-((R or S)-2-(2-isopropylphenyl)pyrrolidin-1-yl)-7-azaspiro[3.5]nonan-7-yl)-N-(((R)-2-(morpholinomethyl)-8-nitro-2,3-dihydrobenzo [b][1,4]dioxin-6-yl)sulfonyl) benzamide], the 50% inhibitory concentration (IC50) in test [1] is 1 nM; in test [2], at most 1 nM; in test [3], at most 1 nM.

`C[C@]1(O)CC[C@H](CNc2ncc(S(=O)(=O)NC(=O)c3ccc(N4CCC5(CC4)CC(N4CCNC[C@H]4c4ccccc4C4CC4)C5)cc3Oc3cnc4[nH]ccc4c3)cc2[N+](=O)[O-])CC1` [Example A-37, 2-((1H-pyrrolo[2,3-b]pyridin-5-yl)oxy)-4-(2-((R)-2-(2-cyclopropyl-phenyl)piperazin-1-yl)-7-azaspiro [3.5]nonan-7-yl)-N-((6-((((1r,4r)-4-hydroxy-4-methylcyclohexyl)methyl)amino)-5-nitropyridin-3-yl)sulfonyl)benzamide]: the IC50 is 1 nM in test [1], at most 1 nM in test [2] and at most 1 nM in test [3].

Regarding `O=C(NS(=O)(=O)c1cc2c(c([N+](=O)[O-])c1)O[C@H](CN1CCOCC1)CO2)c1ccc(N2CCC3(CC2)CC(N2CCC[C@H]2c2ccccc2C2CC2)C3)cc1Oc1cnc2[nH]ccc2c1` (single isomer, unassigned) [Example E-38, 2-((1H-pyrrolo [2,3-b]pyridin-5-yl)oxy)-4-(2-((R or S)-2-(2-cyclopropylphenyl)pyrrolidin-1-yl)-7-azaspiro[3.5]nonan-7-yl)-N-(((R)-2-(morpholinomethyl)-8-nitro-2,3-dihydrobenzo [b][1,4]dioxin-6-yl)sulfonyl) benzamide], the results for the IC50 in test [1], in test [2] and in test [3] were 1 nM, at most 1 nM and at most 1 nM, respectively.

Turning to `O=C(NS(=O)(=O)c1cnc(NCC2CCOCC2)c([N+](=O)[O-])c1)c1ccc(N2CCC3(CC2)CC(N2CCC[C@@H]2c2ccccc2C2CC2)C3)cc1Oc1cnc2[nH]ccc2c1` [Example A-3b, (R)-2-((1H-pyrrolo[2,3-b]pyridin-5-yl)oxy)-4-(2-(2-(2-cyclopropyl-phenyl)pyrrolidin-1-yl)-7-azaspiro [3.5]nonan-7-yl)-N-((5-nitro-6-(((tetrahydro-2H-pyran-4-yl)methyl)amino)pyridin-3-yl)sulfonyl) benzamide], the IC50 is 1 nM in test [1], at most 1 nM in test [2] and at most 1 nM in test [3].

In the case of `CC(C)c1ccccc1[C@@H]1CCCN1C1CC2(CCN(c3ccc(C(=O)NS(=O)(=O)c4cnc(NCC5CCOCC5)c([N+](=O)[O-])c4)c(Oc4cnc5[nH]ccc5c4)c3)CC2)C1` [Example A-5a, (5)-2-((1H-pyrrolo[2,3-b]pyridin-5-yl)oxy)-4-(2-(2-(2-isopropyl-phenyl)pyrrolidin-1-yl)-7-azaspiro [3.5]nonan-7-yl)-N-((5-nitro-6-(((tetrahydro-2H-pyran-4-yl)methyl)amino)pyridin-3-yl)sulfonyl) benzamide], the IC50 in test [2] and in test [3] was at most 1 nM in each case.

Take `Cc1nc(NC[C@H]2CC[C@](C)(O)CC2)c([N+](=O)[O-])cc1S(=O)(=O)NC(=O)c1ccc(N2CCC3(CC2)CC(N2CCOC[C@H]2c2ccccc2C(C)C)C3)cc1Oc1cnc2[nH]ccc2c1` (single isomer, unassigned) [Example A-131, 2-((1H-pyrrolo[2,3-b]pyridin-5-yl)oxy)-N-((6-((((1r,4r)-4-hydroxy-4-methylcyclohexyl)methyl)amino)-2-methyl-5-nitropyridin-3-yl)sulfonyl)-4-(2-((R or S)-3-(2-isopropylphenyl)morpholino)-7-azaspiro[3.5]nonan-7-yl) benzamide]: the IC50 in test [2] and in test [3] was at most 1 nM each time.

Take `CC(C)c1ccccc1[C@H]1CCCN1C1CC2(CCN(c3ccc(C(=O)NS(=O)(=O)c4cc([N+](=O)[O-])c5c(n4)OC[C@H](Cc4ccccc4)N5)c(Oc4cnc5[nH]ccc5c4)c3)CC2)C1` [Example B-3b, 2-((1H-pyrrolo[2,3-b]pyridin-5-yl)oxy)-N-(((S)-2-benzyl-8-nitro-2,3-dihydro-1H-pyrido[2,3-b][1,4]oxazin-6-yl)sulfonyl)-4-(2-((R)-2-(2-isopropylphenyl)pyrrolidin-1-yl)-7-azaspiro[3.5]nonan-7-yl) benzamide]: the 50% inhibitory concentration (IC50) in test [2] and in test [3] was at most 1 nM in each case.
